# Columns and labels:
# [1] = molecular target: T1, Complement C1r subcomponent (Homo sapiens, UniProt P00736); experiment: Evaluated in vitro for inhibitory activity against purified human C1r protease incubated in buffer for 60 minutes
# T1 sequence (P00736 whole entry): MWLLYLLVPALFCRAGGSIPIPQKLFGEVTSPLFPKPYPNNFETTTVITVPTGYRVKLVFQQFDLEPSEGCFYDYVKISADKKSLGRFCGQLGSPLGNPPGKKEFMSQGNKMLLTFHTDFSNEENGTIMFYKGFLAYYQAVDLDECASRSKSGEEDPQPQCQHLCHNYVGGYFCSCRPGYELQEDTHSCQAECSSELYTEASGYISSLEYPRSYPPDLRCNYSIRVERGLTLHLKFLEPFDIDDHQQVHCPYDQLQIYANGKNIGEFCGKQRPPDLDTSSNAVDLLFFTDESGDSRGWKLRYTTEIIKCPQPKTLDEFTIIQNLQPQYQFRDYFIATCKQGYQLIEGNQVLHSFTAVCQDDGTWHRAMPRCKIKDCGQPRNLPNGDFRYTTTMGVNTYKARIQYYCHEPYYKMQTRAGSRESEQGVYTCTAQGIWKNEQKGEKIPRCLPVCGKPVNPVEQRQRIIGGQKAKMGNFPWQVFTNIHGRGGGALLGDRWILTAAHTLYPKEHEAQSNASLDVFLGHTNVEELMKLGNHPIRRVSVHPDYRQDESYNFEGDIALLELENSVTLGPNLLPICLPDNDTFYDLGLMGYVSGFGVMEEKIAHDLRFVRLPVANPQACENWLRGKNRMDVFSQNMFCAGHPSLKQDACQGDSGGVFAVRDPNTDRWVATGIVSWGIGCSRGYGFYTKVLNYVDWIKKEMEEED
# [2] = molecular target: T2, Complement C1r subcomponent (Homo sapiens) (UniProt P00736); experiment: Compound was evaluated for inhibitory activity against purified human C1r protease at 15 uM concentration
# T2 sequence (whole entry): T1 sequence (P00736 whole entry)
# [3] = molecular target: T1, Complement C1r subcomponent; experiment: In vitro inhibition of purified human C1r protease.
# [4] = (§1) Inhibitory activity against hemolysis at 200 uM using suspension of sheep erythrocytes sensitized with antibodies to sheep erythrocytes; assay type: functional; conditions: Ovis aries
# [5] = molecular target: T2, Complement C1r subcomponent (Homo sapiens); experiment: Compound was evaluated for inhibitory activity against purified human C1r protease at 62 uM was reported after 60 min.
# [6] = as §1; assay type: functional, Ovis aries; set-up: scale not given: the % may be the effect or the level left
# [7] = Compound was evaluated for inhibitory activity in hemolysis assay using suspension of sheep erythrocytes sensitized with antibodies to sheep erythrocytes; assay type: functional, Ovis aries
# [8] = molecular target: T2, Complement C1r subcomponent (Homo sapiens); experiment: Compound was evaluated for inhibitory activity against purified human C1r protease at 31.2 uM
# [9] = Percent of inhibition at 200 uM was determined in hemolysis assay using suspension of sheep erythrocytes sensitized with antibodies to sheep erythrocytes; assay type: functional, Ovis aries; set-up: scale not given: the % may be the effect or the level left
IC50 [1] [µM],IC50 [3] [µM],SMILES,also measured
> 62.5,–,CN(c1nc2ccccc2c(=O)o1)S(=O)(=O)c1ccc(Cl)c(Cl)c1,inhibition [2]: 20%
6,0.7,COc1ccc(S(=O)(=O)N(C)c2nc3ccccc3c(=O)o2)cc1,inhibition at 200 µM [4]: 80%
–,7.8,Cc1ccc(S(=O)(=O)N(C)c2nc3ccccc3c(=O)o2)cc1,inhibition [5]: 40%
–,> 62.5,CN(c1nc2ccccc2c(=O)s1)S(=O)(=O)c1ccccc1,Control [6]: 162%
10,6,CN(c1nc2ccccc2c(=O)o1)S(=O)(=O)c1cccc2ccccc12,inhibition at 200 µM [4]: 56%
6,4,CN(c1nc2ccccc2c(=O)o1)S(=O)(=O)c1ccccc1,Control [6]: 162%
–,–,N=C(N)Nc1ccc(C(=O)Oc2ccc3cc(C(=N)N)ccc3c2)cc1 [NAFAMOSTAT],IC50 [7]: 16.6 µM
> 62,–,CN(c1nc2ccccc2c(=O)o1)S(=O)(=O)c1ccc(Cl)cc1,inhibition [8]: 40%
8.3,3.2,CCN(c1nc2ccccc2c(=O)o1)S(=O)(=O)c1ccccc1,inhibition at 200 µM [4]: 86%
> 62,7.5,CN(c1nc2ccccc2c(=O)o1)S(=O)(=O)c1c(Cl)cccc1Cl,–
3,1.5,CN(c1nc2ccccc2c(=O)o1)S(=O)(=O)c1ccc(NC(=N)N)cc1,IC50 [7]: 18 µM
62,30,CCN(c1nc2ccccc2c(=O)o1)S(=O)(=O)c1ccc(Cl)cc1,–
62,7,CN(c1nc2ccccc2c(=O)o1)S(=O)(=O)c1ccc(N)cc1,IC50 [7]: 8 µM
58,24,CN(c1nc2ccccc2c(=O)o1)S(=O)(=O)c1cccc(Cl)c1,inhibition at 200 µM [4]: 49%
> 60,> 60,CN(c1nc2ccccc2c(=O)o1)S(=O)(=O)c1ccc(C(C)(C)C)cc1,–
–,31,CN(c1nc2ccccc2c(=O)o1)S(=O)(=O)c1ccc([N+](=O)[O-])cc1,–
–,> 62.5,COc1ccc(S(=O)(=O)N(C)c2nc3ccccc3c(=O)s2)cc1,–
–,20,CN(c1nc2ccccc2c(=O)o1)S(=O)(=O)c1ccc(C#N)cc1,inhibition [5]: 30%
–,–,O=c1oc(Nc2ccccc2I)nc2cc(C(F)(F)F)ccc12,Control [9]: 146%
25,2.8,CN(c1nc2ccccc2c(=O)o1)S(=O)(=O)c1ccccc1Br,–

# Source: ChEMBL document CHEMBL1132071, “Benzenesulfonamide derivatives of 2-substituted 4H-3,1-benzoxazin-4-ones and benzthiazin-4-ones as inhibitors of complement C1r protease” (Bioorg Med Chem Lett, 1999)
